Experimental data: patent US10993941B2, “Methods for the administration of certain VMAT2 inhibitors” (Neurocrine Biosciences, Inc., priority 2017, dated 2021)
“Also recorded” adds a separate entry of the source.

Experiments:
[1] = both, human, in vivo
Description: (§1) Overall, 24 male and female subjects were enrolled, including 6 subjects with normal hepatic function (Group I), 6 with mild stable hepatic impairment (Group II), 6 with moderate stable hepatic impairment (Group III), and 6 with severe stable hepatic impairment (Group IV). […] All subjects were genotyped to determine their cytochrome P450 2D6 (CYP2D6) status.
(§2) The Child-Pugh scale was used to categorize the degree of hepatic impairment for assignment into the mild (score of 5-6), moderate (score of 7-9), and severe hepatic impairment (score of 10-15) groups.
(§3) After providing informed consent, subjects were screened for eligibility within 28 days of study drug dosing on Day 1. Eligible subjects were admitted to the center in the morning (Day −1), before the dosing day and remained confined in the center for 4 days. Subjects were discharged on Day 4, after the collection of the 72-hour PK sample and safety assessments. On the morning of Days 5 and 6, subjects returned to the center for a PK sample collection and safety assessments; a final study visit was conducted on Day 8 (7 days postdose).
(§4) Safety assessments were conducted at scheduled times throughout the study.

clinical = settings: both, human, in vivo
Description: as §1, §2, §3, §4

[2] = tested on: more than 80 targets including GPCRs, cell-surface monoamine transporters, and ion channels including HERG; test: Multi-target activity screen (Cerep screen); settings: receptors
Dopamine D1 = Dopamine D1 (Homo sapiens, UniProt P21728); test: Cerep screen, ligand binding; settings: radioligand binding assays and broad panel screen
Chain of Dopamine D1 (P21728 whole entry): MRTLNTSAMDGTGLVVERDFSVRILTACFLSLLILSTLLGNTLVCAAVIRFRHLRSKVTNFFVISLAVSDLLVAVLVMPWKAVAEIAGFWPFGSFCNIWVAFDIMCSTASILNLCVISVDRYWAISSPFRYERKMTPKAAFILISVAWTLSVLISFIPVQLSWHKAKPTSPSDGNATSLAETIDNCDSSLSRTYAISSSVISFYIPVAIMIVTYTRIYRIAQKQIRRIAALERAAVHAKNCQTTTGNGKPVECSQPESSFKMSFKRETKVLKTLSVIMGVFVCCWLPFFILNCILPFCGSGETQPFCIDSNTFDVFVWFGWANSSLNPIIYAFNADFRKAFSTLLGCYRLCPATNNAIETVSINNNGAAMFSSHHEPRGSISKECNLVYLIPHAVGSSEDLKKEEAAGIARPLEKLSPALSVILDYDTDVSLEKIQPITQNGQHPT

Dopamine D2(s) = Dopamine D2(s) (Homo sapiens, UniProt P14416); test: Cerep screen, ligand binding; settings: radioligand binding assays and broad panel screen
Chain of Dopamine D2(s) (P14416 1-414 isoform P14416-2): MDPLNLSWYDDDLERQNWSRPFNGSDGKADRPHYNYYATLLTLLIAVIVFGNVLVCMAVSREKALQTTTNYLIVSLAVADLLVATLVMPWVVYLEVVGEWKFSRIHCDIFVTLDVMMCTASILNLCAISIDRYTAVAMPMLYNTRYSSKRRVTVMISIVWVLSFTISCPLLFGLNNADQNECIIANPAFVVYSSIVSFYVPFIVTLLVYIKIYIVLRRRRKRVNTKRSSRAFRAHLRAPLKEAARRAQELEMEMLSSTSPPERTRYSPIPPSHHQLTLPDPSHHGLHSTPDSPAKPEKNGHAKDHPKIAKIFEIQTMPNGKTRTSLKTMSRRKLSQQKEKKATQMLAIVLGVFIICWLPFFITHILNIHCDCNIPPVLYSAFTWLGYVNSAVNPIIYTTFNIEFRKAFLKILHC

human VMAT1 transporter = molecular target: T1, human VMAT1 transporter (Homo sapiens, UniProt P54219); test: Uptake in cells expressing VMAT1; format: cell-based; settings: concentrations up to 10 μM
T1 construct: expressed in transfected cells
T1 sequence (P54219 1-525): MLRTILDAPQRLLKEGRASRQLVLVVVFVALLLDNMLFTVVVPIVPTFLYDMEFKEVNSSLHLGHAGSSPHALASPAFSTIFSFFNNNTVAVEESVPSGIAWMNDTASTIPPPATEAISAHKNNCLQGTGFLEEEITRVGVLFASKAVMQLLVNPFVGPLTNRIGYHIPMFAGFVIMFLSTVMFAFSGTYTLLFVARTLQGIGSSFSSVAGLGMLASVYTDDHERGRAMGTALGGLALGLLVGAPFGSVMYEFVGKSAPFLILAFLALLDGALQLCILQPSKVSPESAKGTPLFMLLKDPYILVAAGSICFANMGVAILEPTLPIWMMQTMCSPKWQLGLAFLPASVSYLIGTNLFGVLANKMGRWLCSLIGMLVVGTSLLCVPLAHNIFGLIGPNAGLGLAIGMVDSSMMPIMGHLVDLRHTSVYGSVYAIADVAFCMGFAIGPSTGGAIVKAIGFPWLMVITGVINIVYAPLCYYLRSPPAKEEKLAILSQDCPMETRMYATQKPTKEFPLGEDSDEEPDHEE
Description: None of the TBZ or VBZ metabolites had any affinity for the monoamine transporters DAT, SERT or NET. To complete the selectivity profile for VMAT2, the functional activity for the human VMAT1 transporter of these compounds was tested in cells expressing VMAT1.

[3] = tested on: dopamine, serotonin and adrenergic receptor subtypes; test: Detailed radioligand binding assays, monoamine receptor subtypes
ptosis = test: Ptosis, in vivo surrogate measure
serum prolactin = test: Prolactin release, in vivo surrogate measure

SMILES | increase in AUC0-∞ [1] | increase in t1/2 with hepatic impairment [1] [fold] | increase in tmax with hepatic impairment [1] [fold] | mean Tlag [1] [h] | MRT (clinical) [h] | MRT (clinical; po, 50 mg) [h] | affinity for more than 80 binding sites [2] | interaction with D1 receptors (Dopamine D1) | interaction with D2 receptors (Dopamine D2(s)) | induction of ptosis (ptosis) | increase in serum prolactin levels (serum prolactin) | inhibition of uptake through VMAT1 (human VMAT1 transporter) | further results
COc1cc2c(cc1OC)[C@H]1C[C@@H](OC(=O)[C@@H](N)C(C)(C)O)[C@H](CC(C)C)CN1CC2 [NBI-136110] | < 2 fold | < 2 | < 2 | 0.33 to 0.54 | 51 to 81 | 53 | little to no affinity |  |  |  |  |  | increase in Cmax [1]: < 2 fold; mean molar ratio of plasma AUC0-∞ for NBI-136110 versus NBI-98854 [1]: 28.3-37.3%; half-life (clinical; mean t1/2): 33 to 36 h; Tmax (clinical; median tmax): 2.5 to 4 h; AUC(0-t) (clinical; po, 50 mg, AUC0-24): 363 ng·h/mL; AUC(0-t) (clinical; po, 50 mg, AUC0-TLAST): 928 ng·h/mL; AUC(0-inf) (clinical; po, 50 mg, AUC0-∞): 1030 ng·h/mL; Cmax (clinical; po, 50 mg, CMAX): 32.5 ng/mL; Tmax (clinical; po, 50 mg, TMAX): 4 h; half-life (clinical; po, 50 mg, t1/2): 57 h
COc1cc2c(cc1OC)[C@@H]1C[C@@H](O)[C@@H](CC(C)C)CN1CC2 [R,S,S-DHTBZ] |  |  |  |  |  |  |  | interact with D1 and D2 receptors | interact with D1 and D2 receptors |  |  |  | 
COc1cc2c(cc1OC)[C@@H]1C[C@H](O)[C@@H](CC(C)C)CN1CC2 [S,S,S-DHTBZ] |  |  |  |  |  |  |  | interact with D1 and D2 receptors | interact with D1 and D2 receptors |  |  |  | 
COc1cc2c(cc1OC)[C@H]1C[C@@H](O)[C@H](CC(C)C)CN1CC2 [NBI-98782, (2R,3R,11bR)-3-isobutyl-9,10-dimethoxy-1,3,4,6,7,11b-hexahydro-2H-pyrido[2,1-a]isoquinolin-2-ol] | approximately 3.5 fold | < 2 | < 2 | 0.42 to 0.67 | 36 to 53 | 36 | little to no affinity |  |  | induced ptosis in an equivalent manner | induced a similar increase in serum prolactin levels as TBZ |  | inhibition of uptake through VMAT1 (human VMAT1 transporter; listed as R,R,R-DHTBZ): no significant inhibitory activity; also recorded: no significant effect on the uptake of monoamines through VMAT1; specificity for the VMAT2 transporter versus monoamine receptor subtypes [3]: high specificity
COC(=O)[C@H]1[C@H]2C[C@@H]3c4[nH]c5cc(OC)ccc5c4CCN3C[C@H]2C[C@@H](OC(=O)c2cc(OC)c(OC)c(OC)c2)[C@@H]1OC [reserpine, reference compound] |  |  |  |  |  |  |  |  |  |  |  | substantially inhibited uptake through VMAT1 | 
COc1cc2c(cc1OC)C1CC(=O)C(CC(C)C)CN1CC2 (stereo not drawn) [TBZ, reference compound] |  |  |  |  |  |  |  |  |  | induced ptosis in an equivalent manner | increase in serum prolactin levels | no significant inhibitory activity; also recorded: no significant effect on the uptake of monoamines through VMAT1 | 
